Source: US20220062240A1, “METHODS OF TREATING CANCER USING A CLK INHIBITOR” (BioSplice Therapeutics, Inc., priority 2018, published 2022)
Like-named read-outs stand apart in the source and are kept apart here.

What was measured:
all 50 cell lines = assay: CellTiter-Glo Viability Assay, average across all cell lines; format: cell-based; conditions: Homo sapiens; across all 50 cell lines; read-out: average EC50 for inhibition of cancer cell proliferation
In short: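 Human cancer cell lines from breast, colorectal, haematopoietic/lymphoid, liver, lung, ovarian, pancreatic and prostate tumours were seeded at 300-3,000 cells/well and exposed to compound in duplicate for four days at 37° C, 5% CO2. Viable cells were measured by ATP luminescence; EC50 values came from dose-response curves.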

[1] = tested on: prostate cancer (5 cell lines); assay: CellTiter-Glo Viability Assay, prostate cancer; format: cell-based; conditions: Homo sapiens
ZR-75-1 = assay: CellTiter-Glo Viability Assay, breast cancer; format: cell-based; conditions: Homo sapiens, 96 h; ZR-75-1, breast cancer, four days; read-out: EC50
HCC1599 = assay: CellTiter-Glo Viability Assay, breast cancer; format: cell-based; conditions: Homo sapiens, 96 h; HCC1599, breast cancer, four days; read-out: EC50
MDA-MB-231-Luc = assay: CellTiter-Glo Viability Assay, breast cancer; format: cell-based; conditions: Homo sapiens, 96 h; MDA-MB-231-Luc, breast cancer, four days; read-out: EC50
BT-549 = assay: CellTiter-Glo Viability Assay, breast cancer; format: cell-based; conditions: Homo sapiens, 96 h; BT-549, breast cancer, four days; read-out: EC50
MCF7 = assay: CellTiter-Glo Viability Assay, breast cancer; format: cell-based; conditions: Homo sapiens, 96 h; MCF7, breast cancer, four days; read-out: EC50
CAMA1 = assay: CellTiter-Glo Viability Assay, breast cancer; format: cell-based; conditions: Homo sapiens, CAMA-1, 96 h; CAMA1, breast cancer, four days; read-out: EC50
DU4475 = assay: CellTiter-Glo Viability Assay, breast cancer; format: cell-based; conditions: Homo sapiens, DU-4475, 96 h; DU4475, breast cancer, four days; read-out: EC50
T47D = assay: CellTiter-Glo Viability Assay, breast cancer; format: cell-based; conditions: Homo sapiens, 96 h, breast cancer, four days, read-out: EC50
[2] = tested on: pancreatic cancer (8 cell lines); assay: CellTiter-Glo Viability Assay, pancreatic cancer; format: cell-based; conditions: Homo sapiens, inhibition of cancer cell proliferation
[3] = tested on: liver cancer (3 cell lines); assay: CellTiter-Glo Viability Assay, liver cancer; format: cell-based; conditions: Homo sapiens, inhibition of cancer cell proliferation
[4] = tested on: lung cancer (4 cell lines); assay: CellTiter-Glo Viability Assay, lung cancer; format: cell-based; conditions: Homo sapiens, inhibition of cancer cell proliferation
CLK2 = biological target: T1, CLK2 (Homo sapiens, UniProt P49760); assay: CLK2 kinase activity assay (Z-lyte, Ser/Thr 6 peptide); format: biochemical; conditions: recombinant CLK2 kinase, ATP 60 μM; read-out: EC50
T1 construct: purchased Thermo Fisher (Life Technologies), Z'-LYTE Kinase Assay Kits
T1 sequence (P49760 whole entry): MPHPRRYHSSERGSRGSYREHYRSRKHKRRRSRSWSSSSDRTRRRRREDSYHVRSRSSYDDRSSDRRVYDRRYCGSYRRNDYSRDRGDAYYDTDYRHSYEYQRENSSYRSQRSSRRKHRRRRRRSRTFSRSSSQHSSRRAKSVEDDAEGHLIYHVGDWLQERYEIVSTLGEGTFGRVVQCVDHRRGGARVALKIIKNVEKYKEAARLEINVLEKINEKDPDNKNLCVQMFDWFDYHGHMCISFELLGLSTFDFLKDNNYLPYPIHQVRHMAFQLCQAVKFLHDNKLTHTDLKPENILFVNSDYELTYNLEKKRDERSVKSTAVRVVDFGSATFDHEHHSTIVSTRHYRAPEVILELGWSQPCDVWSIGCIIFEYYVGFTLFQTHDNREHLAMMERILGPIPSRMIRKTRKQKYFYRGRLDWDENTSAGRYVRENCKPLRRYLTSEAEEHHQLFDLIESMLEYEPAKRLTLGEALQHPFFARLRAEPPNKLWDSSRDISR
Method: All reactions were performed in duplicate.

[5] = tested on: ovarian cancer (4 cell lines); assay: CellTiter-Glo Viability Assay, ovarian cancer; format: cell-based; conditions: Homo sapiens, inhibition of cancer cell proliferation
[6] = tested on: haematopoietic & lymphoid tumors (13 cell lines); assay: CellTiter-Glo Viability Assay, haematopoietic & lymphoid tumors; format: cell-based; conditions: Homo sapiens, inhibition of cancer cell proliferation
CLK3 = CLK3 (Homo sapiens, UniProt P49761); assay: CLK3 kinase activity assay (Z-lyte, Ser/Thr 18 peptide)
Sequence of CLK3 (P49761 whole entry): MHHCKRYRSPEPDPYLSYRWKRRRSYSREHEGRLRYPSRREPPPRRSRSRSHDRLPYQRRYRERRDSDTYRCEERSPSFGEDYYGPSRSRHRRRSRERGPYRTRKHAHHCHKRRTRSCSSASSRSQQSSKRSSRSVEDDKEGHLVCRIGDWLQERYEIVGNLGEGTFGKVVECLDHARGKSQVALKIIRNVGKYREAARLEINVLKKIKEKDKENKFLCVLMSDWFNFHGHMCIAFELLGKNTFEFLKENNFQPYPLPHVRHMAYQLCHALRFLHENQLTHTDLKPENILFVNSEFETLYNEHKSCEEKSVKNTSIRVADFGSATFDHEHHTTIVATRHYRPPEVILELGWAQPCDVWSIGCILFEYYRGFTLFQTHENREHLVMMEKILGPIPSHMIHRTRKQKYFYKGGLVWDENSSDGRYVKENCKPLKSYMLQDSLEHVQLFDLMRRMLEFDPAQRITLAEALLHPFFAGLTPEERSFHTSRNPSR
Method: Each compound was dissolved in DMSO as a 10 mM stock and used to prepare compound source plates.
This is a non-radioactive assay using fluorescence resonance energy transfer (FRET) between coumarin and fluorescein to detect kinase activity which is represented as a ratio of coumarin emission/fluorescein emission.
All reactions were performed in duplicate. Unphosphorylated (“0% Control”) and phosphorylated (“100% control”) forms of Ser/Thr 18 served as control reactions. Additionally, an 11-point dose-response curve of Staurosporine (1 uM top) was run to serve as a positive compound control.
After incubation, Development Reagent A was diluted in Development Buffer then added to the reaction and allowed to further incubate for one hour at room temperature.
Dose-response curves were generated and inhibitory concentration (IC50) values were calculated using non-linear regression curve fit in the Dotmatics' Studies Software (Bishops Stortford, UK).
Compounds were acoustically transferred on 1536-well plates (Echo 550, LabCyte) instrument. Kinase, peptide, and ATP reagents from the Z′-LYTE Kinase Assay Kits (Thermo Fisher) were dispensed onto the compound plates using an EL406 liquid dispenser (BioTek). Plates were incubated in the dark at room temperature for 1 hr. Development reagent was added to the plates and then incubated in the dark at room temperature for 1 hr. Fluorescence signal form the plate was then read using an EnVision Multilabel Plate Reader (Perkin Elmer).

[7] = tested on: colorectal cancer (6 cell lines); assay: CellTiter-Glo Viability Assay, colorectal cancer; format: cell-based; conditions: Homo sapiens, inhibition of cancer cell proliferation
[8] = DU-145, read-out: Prostate cancer EC50 Du-145
[9] = PC-3, PC3 cell line, inhibition of cancer cell proliferation, read-out: Prostate cancer EC50 PC3
[10] = 22Rv1 cell line, inhibition of cancer cell proliferation, read-out: Prostate cancer EC50 22Rv1
[11] = LNCap clone FGC cell line, inhibition of cancer cell proliferation, read-out: Prostate cancer EC50 LNCap clone FGC
[12] = VCaP (Sigma) cell line, inhibition of cancer cell proliferation, read-out: Prostate cancer EC50 VCaP (Sigma)
[13] = BXPC-3, BxPC3 cell line, read-out: Pancreatic cancer, EC50 BxPC3
[14] = CAPAN-1, Capan1 cell line, read-out: Pancreatic cancer, EC50 Capan1
[15] = Capan-2, Capan2 cell line, read-out: Pancreatic cancer, EC50 Capan2
[16] = MIA PaCa-2 cell line, read-out: Pancreatic cancer, EC50 MIA PaCa-2
[17] = PANC 05.04 cell line, read-out: Pancreatic cancer, EC50 PANC 05.04
[18] = PANC-1 cell line, read-out: Pancreatic cancer, EC50 PANC-1
[19] = UPAFII cell line, read-out: Pancreatic cancer, EC50 UPAFII
[20] = SNU-398, SNU398 cell line, read-out: Liver cancer, EC50 SNU398
[21] = HEPG2 cell line, read-out: Liver cancer, EC50 HEPG2
[22] = PLC/PRF/5 cell line, read-out: Liver cancer, EC50 PLC/PRF/5
[23] = A-427, A427 cell line, read-out: Lung cancer, EC50 (μM) A427
[24] = HCC78, HCC-78 cell line, read-out: Lung cancer, EC50 (μM) HCC-78
[25] = NCI-H460 cell line, read-out: Lung cancer, EC50 (μM) NCI-H460
[26] = NCI-H522 cell line, read-out: Lung cancer, EC50 (μM) NCI-H522
[27] = PA-1, PA1 cell line, read-out: Ovarian cancer, EC50 (μM) PA1
[28] = TOV112D, TOV-112D cell line, read-out: Ovarian cancer, EC50 (μM) TOV-112D
[29] = OV-90 cell line, read-out: Ovarian cancer, EC50 (μM) OV-90
[30] = OVCAR-3 cell line, read-out: Ovarian cancer, EC50 (μM) OVCAR-3
[31] = DND41, DND-41 cell line, read-out: Haematopoietic & Lymphoid tumors, EC50 (μM) DND-41
[32] = MV4-11, MV-4-11 cell line, read-out: Haematopoietic & Lymphoid tumors, EC50 (μM) MV-4-11
[33] = Rec1, REC-1 cell line, read-out: Haematopoietic & Lymphoid tumors, EC50 (μM) REC-1
[34] = SU-DHL-4, SUDHL4 cell line, read-out: Haematopoietic & Lymphoid tumors, EC50 (μM) SUDHL4
[35] = HL-60 cell line, read-out: Haematopoietic & Lymphoid tumors, EC50 (μM) HL-60
[36] = JM1 cell line, read-out: Haematopoietic & Lymphoid tumors, EC50 (μM) JM1
[37] = JURKAT, Clone E6-1 cell line, read-out: Haematopoietic & Lymphoid tumors, EC50 (μM) JURKAT, Clone E6-1
[38] = JeKo-1 cell line, read-out: Haematopoietic & Lymphoid tumors, EC50 (μM) JeKo-1
[39] = KASUMI-1 cell line, read-out: Haematopoietic & Lymphoid tumors, EC50 (μM) KASUMI-1
[40] = Loucy cell line, read-out: Haematopoietic & Lymphoid tumors, EC50 (μM) Loucy
[41] = MOLT-4 cell line, read-out: Haematopoietic & Lymphoid tumors, EC50 (μM) MOLT-4
[42] = TF-1 cell line, read-out: Haematopoietic & Lymphoid tumors, EC50 (μM) TF-1
[43] = TOLEDO cell line, read-out: Haematopoietic & Lymphoid tumors, EC50 (μM) TOLEDO
[44] = HCT-116, HCT116 cell line, read-out: Colorectal cancer, EC50 (μM) HCT116
[45] = HT-29, HT29 cell line, read-out: Colorectal cancer, EC50 (μM) HT29
[46] = SW-620, SW620 cell line, read-out: Colorectal cancer, EC50 (μM) SW620
[47] = DLD-1 cell line, read-out: Colorectal cancer, EC50 (μM) DLD-1
[48] = SW48 cell line, read-out: Colorectal cancer, EC50 (μM) SW48
[49] = SW480 cell line, read-out: Colorectal cancer, EC50 (μM) SW480

O=C1COc2cccc(c2)-c2cncc3[nH]c(nc23)-c2n[nH]c3ccc(cc23)-c2cncc(c2)N1 [Compound 56]
EC50 (all 50 cell lines): 5060 nM | EC50 [1, 8]: > 10000 nM | EC50 [1, 9]: 3370 nM | EC50 [1, 10]: 7900 nM | EC50 [1, 11]: > 10000 nM | EC50 [1, 12]: > 10000 nM | EC50 (ZR-75-1): 6900 nM | EC50 (HCC1599): 248 nM | EC50 (MDA-MB-231-Luc): 6630 nM | EC50 (BT-549): 328 nM | EC50 (MCF7): > 10000 nM | EC50 (CAMA1): 1530 nM | EC50 (DU4475): 42 nM | EC50 (T47D): 3220 nM | EC50 [2, 13]: > 10000 nM | EC50 [2, 14]: 3620 nM | EC50 [2, 15]: > 10000 nM | EC50 [2, 16]: 697 nM | EC50 [2, 17]: > 10000 nM | EC50 [2, 18]: > 10000 nM | EC50 [2, 19]: > 10000 nM | EC50 [3, 20]: 160 nM | EC50 [3, 21]: > 10000 nM | EC50 [3, 22]: > 10000 nM | EC50 [4, 23]: 1.31 µM | EC50 [4, 24]: > 10 µM | EC50 [4, 25]: > 10 µM | EC50 [4, 26]: 0.224 µM | EC50 (CLK2): 3.3 nM | EC50 [5, 27]: 0.767 µM | EC50 [5, 28]: 1.45 µM | EC50 [5, 29]: > 10 µM | EC50 [5, 30]: 0.436 µM | EC50 [6, 31]: 0.959 µM | EC50 [6, 32]: 0.121 µM | EC50 [6, 33]: 5.51 µM | EC50 [6, 34]: 0.365 µM | EC50 [6, 35]: 3.21 µM | EC50 [6, 36]: 0.394 µM | EC50 [6, 37]: > 10 µM | EC50 [6, 38]: 0.39 µM | EC50 [6, 39]: 0.767 µM | EC50 [6, 40]: 0.485 µM | EC50 [6, 41]: > 10 µM | EC50 [6, 42]: > 10 µM | EC50 [6, 43]: 0.402 µM | EC50 (CLK3): 16.3 nM | EC50 [7, 44]: 3.81 µM | EC50 [7, 45]: > 10 µM | EC50 [7, 46]: 1.09 µM | EC50 [7, 47]: 9.99 µM | EC50 [7, 48]: 5.05 µM | EC50 [7, 49]: 1.38 µM

CN1CCCCN(C)c2nccc3[nH]c(nc23)-c2n[nH]c3ccc(cc23)-c2cncc(c2)C1 [Compound 58]
EC50 (all 50 cell lines): 441 nM | EC50 [1, 8]: 179 nM | EC50 [1, 9]: 313 nM | EC50 [1, 10]: 121 nM | EC50 [1, 11]: 1060 nM | EC50 [1, 12]: 350 nM | EC50 (ZR-75-1): 519 nM | EC50 (HCC1599): 379 nM | EC50 (MDA-MB-231-Luc): 505 nM | EC50 (BT-549): 480 nM | EC50 (MCF7): 1810 nM | EC50 (CAMA1): 1020 nM | EC50 (DU4475): 131 nM | EC50 (T47D): 1240 nM | EC50 [2, 13]: 462 nM | EC50 [2, 14]: 323 nM | EC50 [2, 15]: 249 nM | EC50 [2, 16]: 120 nM | EC50 [2, 17]: 752 nM | EC50 [2, 18]: 578 nM | EC50 [2, 19]: 190 nM | EC50 [3, 20]: 31 nM | EC50 [3, 21]: 2110 nM | EC50 [3, 22]: 1600 nM | EC50 [4, 23]: 0.177 µM | EC50 [4, 24]: 0.9 µM | EC50 [4, 25]: 0.454 µM | EC50 [4, 26]: 0.103 µM | EC50 (CLK2): 1.6 nM | EC50 [5, 27]: 0.147 µM | EC50 [5, 28]: 0.292 µM | EC50 [5, 29]: 0.847 µM | EC50 [5, 30]: 0.162 µM | EC50 [6, 31]: 0.106 µM | EC50 [6, 32]: 0.013 µM | EC50 [6, 33]: 0.089 µM | EC50 [6, 34]: 0.074 µM | EC50 [6, 35]: 1.13 µM | EC50 [6, 36]: 0.032 µM | EC50 [6, 37]: 0.271 µM | EC50 [6, 38]: 0.067 µM | EC50 [6, 39]: 0.185 µM | EC50 [6, 40]: 0.145 µM | EC50 [6, 41]: 0.314 µM | EC50 [6, 42]: 0.921 µM | EC50 [6, 43]: 0.065 µM | EC50 (CLK3): 11.9 nM | EC50 [7, 44]: 0.15 µM | EC50 [7, 45]: 0.455 µM | EC50 [7, 46]: 0.066 µM | EC50 [7, 47]: 0.132 µM | EC50 [7, 48]: 0.057 µM | EC50 [7, 49]: 0.165 µM
